This is an account of results in ChEMBL document CHEMBL1139408, “Synthesis and calpain inhibitory activity of peptidomimetic compounds with constrained amino acids at the P2 position” (Bioorg Med Chem Lett, 2008).

For assay [1], the target named is T1, Calpain-1 catalytic subunit (Sus scrofa, UniProt P35750).
T1 sequence (P35750 whole entry): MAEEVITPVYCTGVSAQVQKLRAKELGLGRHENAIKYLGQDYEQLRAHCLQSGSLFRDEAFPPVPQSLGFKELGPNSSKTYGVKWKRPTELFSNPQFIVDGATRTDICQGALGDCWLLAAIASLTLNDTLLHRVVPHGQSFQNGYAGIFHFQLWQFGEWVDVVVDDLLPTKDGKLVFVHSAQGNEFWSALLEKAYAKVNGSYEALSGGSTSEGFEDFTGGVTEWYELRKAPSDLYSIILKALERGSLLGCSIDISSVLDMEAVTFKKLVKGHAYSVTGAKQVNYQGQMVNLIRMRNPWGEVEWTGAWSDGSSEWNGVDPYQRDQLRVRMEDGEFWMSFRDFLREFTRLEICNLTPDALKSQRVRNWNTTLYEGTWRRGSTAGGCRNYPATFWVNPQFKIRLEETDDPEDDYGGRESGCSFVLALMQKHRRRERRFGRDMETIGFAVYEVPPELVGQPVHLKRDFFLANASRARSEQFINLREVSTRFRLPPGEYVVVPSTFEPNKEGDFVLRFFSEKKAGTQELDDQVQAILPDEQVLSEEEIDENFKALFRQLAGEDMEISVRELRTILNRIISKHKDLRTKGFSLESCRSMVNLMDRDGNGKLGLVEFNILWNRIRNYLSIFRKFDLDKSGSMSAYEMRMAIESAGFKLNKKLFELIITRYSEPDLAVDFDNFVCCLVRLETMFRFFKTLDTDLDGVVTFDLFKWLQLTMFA
The assay can be described thus: Inhibition of pig erythrocyte mu-calpain.

In assay [2] the target is Cathepsin B (Homo sapiens, UniProt P07858). The assay can be described thus: Inhibition of human liver cathepsin B.
The nature of assay [3]: Selectivity ratio of Ki for human liver cathepsin B to Ki for pig erythrocyte mu-calpain.

SMILES strings stand for the structures. Where a SMILES comes first, the peptide text is derived from it. [ ]: non-standard residue; d: D form. The star is where a group is joined. Hydrocinnamoyl = O=C(CCc1ccccc1)*; Nle = CCCC[C@H](N)C(=O)O; Ac5c = NC1(C(=O)O)CCCC1; Deg = CCC(N)(CC)C(=O)O

Broadly, the Ki is the dissociation constant of the complex between target and ligand, obtained from inhibition or displacement. A high value points to lower affinity. With `CCCC[C@@H](C=O)NC(=O)[C@H](CC(C)C)NC(=O)[C@H](CC(C)C)NC(C)=O` (Ac-Leu-Leu-[Nle]-aldehyde), the Ki in assay [1] was determined as 190 nM; in assay [2], 150 nM.
As for `O=C[C@H](Cc1ccccc1)NC(=O)C1(NC(=O)CCc2ccccc2)CCCC1` (Hydrocinnamoyl-[Ac5c]-Phe-aldehyde), the inhibition constant Ki worked out at 1940 nM in assay [1] and 880 nM in assay [2]. Besides, the Selectivity ratio in assay [3] amounted to 0.45.
Regarding `CCC(CC)(NC(=O)CCc1ccccc1)C(=O)N[C@H](C=O)Cc1ccccc1` (Hydrocinnamoyl-[Deg]-Phe-aldehyde), the Ki in assay [1] was found to be 80 nM; in assay [2], 2910 nM. For the same molecule, in assay [3], the Selectivity ratio was determined as 36.4.
